The text below walks through data of US8247382B2, “Method for increasing oxytocin release in the epidermis” (Shiseido Company, Ltd., priority 2008, dated 2012).

Assay [1] concerns epidermal keratinocytes of human neonates. The assay is described as follows: Oxytocin release by differentiated keratinocytes after ATP gamma s addition (ELISA of culture medium). It is filed as cell-based. As to the method: The keratinocytes used herein were epidermal keratinocytes of human neonates up to a passage number of 4 (Kurabo Industries Ltd.). The culture medium was Defined Keratinocyte-SFM (Invitrogen Japan K.K.). The keratinocytes were grown to confluence in 10-cm dishes at 37° C. for several days with the culture medium replaced on alternate days, and then the calcium chloride concentration in the culture medium was increased to 1.8 mM thereby inducing differentiation. After a lapse of 45 hours, adenosine-5′-(3-thio)triphosphoric acid tetralithium salt (Sigma Co., hereinafter referred to as “ATP gamma s-Li”) was added to each dish so as to make the final concentrations of 0, 10, 30, 100, and 300 μM, and the incubation of culture was continued at 37° C. The culture medium was collected 10 minutes after the addition of ATP gamma s, and the amount of oxytocin was measured with the ELISA method.
Oxytocin in the collected culture medium was purified and concentrated using a reversed phase column (C18 Sep-pak Light, Waters Co.), and eluted with an aqueous solution containing 60% acetonitrile and 0.1% trifluoroacetic acid. More specifically, the column eluate fraction containing oxytocin was freeze-dried, and dissolved again in a small amount of buffer solution (included in the EIA kit), and the oxytocin in the culture medium was concentrated at least 20 fold. Thereafter, the oxytocin concentration in the concentrated oxytocin solution was measured by the competitive ELISA method using Oxytocin EIA Kit (Assay Designs, Inc). The measurement procedure described in the instruction manual attached to the kit was followed. […] The absorbance of the color reaction by alkaline phosphatase was measured, and a semilogarithmic standard curve was generated by plotting the absorbance change due to the competitive inhibition against the known amount of oxytocin. The standard curve was used to determine the amount of oxytocin corresponding to the absorbance of the sample. […]
For orientation: An ELISA detects its analyte on a solid surface through an enzyme-linked reagent.

Another assay deals with keratinocytes. Particulars: added to keratinocytes; J. Clin. Invest. (1992) 90, 42-51; Biochem. J. (2004) 380, 329-338; cited from earlier work.

Where a name gives a salt, the structure may show the parent alone.

Take `O=C(O)CN(CCOCCOCCN(CC(=O)O)CC(=O)O)CC(=O)O` [EGTA, ethylene glycol bis(2-aminoethyl ether) tetraacetic acid]: the “effect of EGTA on the increase of oxytocin concentration with increases of ATP gamma s” value in assay [1] (2 mM EGTA added 5 minutes before ATP gamma s) was “inhibited”.
For the compound `Nc1ncnc2c1ncn2[C@@H]1O[C@H](COP(=O)(O)OP(=O)(O)OP(O)(O)=S)[C@@H](O)[C@H]1O` [ATP gamma s, adenosine-5′-(3-thio)triphosphoric acid tetralithium salt], the “change of oxytocin concentration in the culture media with ATP gamma s concentration” value in assay [1] (0, 10, 30, 100, 300 μM ATP gamma s, 10 minutes, no EGTA) is “increased with increases of ATP gamma s”. Also, in assay [1] (300 μM ATP gamma s, medium collected 10 minutes after addition, 37° C., ELISA), the “oxytocin concentration in the culture medium” value is given as “exceeded 7 pg/mL”. Besides, in the assay with keratinocytes, the “Ca2+ concentration in the keratinocytes” value is recorded as “increase the Ca^2+ concentration in the keratinocytes in a concentration-dependent manner”.
As to `Nc1ncnc2c1ncn2[C@@H]1O[C@H](COP(=O)(O)OP(=O)(O)OP(=O)(O)O)[C@@H](O)[C@H]1O` [ATP], the “Ca2+ concentration in the keratinocytes” value in the assay on keratinocytes is “increase the Ca^2+ concentration in the keratinocytes in a concentration-dependent manner”.
